In patent publication US6673813B2, “Methods for identifying and treating resistant tumors” (priority 1994, dated 2004):
In brackets after ≈: the same amount, converted by molar mass. Like-named read-outs stand apart in the source and are kept apart here.

Columns and labels:
HL60/S cells = assay: Cytotoxicity of oncolytics in sensitive HL60/S cells; assay type: cell-based; conditions: Homo sapiens, HL-60
Excerpt: (§1) See Marquardt, D., McCrone, S., and Center M. S., Cancer Res., 50: 1426, (1990). The mechanism(s) utilized by P190 to confer resistance to Adriamycin is not well understood but may involve the intracellular redistribution of Adriamycin away from the nucleus. See Marquardt, D. and Center, M. S., supra. Adriamycin is an inhibitor of topoisomerase II (Beck, W. T., Bull. Cancer, 77: 1131, (1990), which is an enzyme involved in DNA replication. Redistribution of Adriamycin away from the nucleus would therefore be an important component in cellular resistance to this drug. The studies published to date on P190 have utilized cell lines selected in vitro for resistance to Adriamycin (McGrath, T., Latoud, C., Arnold, S. T., Safa, A. R., Felsted, R. S., and Center, M. S., supra; Marquardt, D. and Center, M. S., supra; and Marquardt, D., McCrone, S., and Center M. S. Cancer Res., supra. The association of MRP (P190) with drug resistance was made by sodium dodecyl sulfate polyacrylamide gel electrophoresis (SDS-PAGE) of radioactive extracts prepared from Adriamycin-resistant HL60/Adr human leukemia cells labeled with 8-azido-alpha[^32P]ATP. See McGrath, T., Latoud, C., Arnold, S. T., Safa, A. R., Felsted, R. S., and Center, M. S., supra. The drug-resistance phenotype conferred by P190 is not limited to the anthracyclines. Epipodophyllotoxin resistance is linked to P190 expression. […]

HL60/ADR cells = assay: Cytotoxicity of oncolytics in doxorubicin-resistant HL60/Adr cells; assay type: cell-based; conditions: Homo sapiens
Excerpt: as §1

MRP [1] = target: T1, MRP (Homo sapiens, UniProt P33527); assay: ATP-dependent transport of [3H]etoposide glucuronide / [3H]etoposide into membrane vesicles from MRP-overexpressing cells; conditions: direct transport measurement in membrane vesicles
T1 sequence (P33527 whole entry): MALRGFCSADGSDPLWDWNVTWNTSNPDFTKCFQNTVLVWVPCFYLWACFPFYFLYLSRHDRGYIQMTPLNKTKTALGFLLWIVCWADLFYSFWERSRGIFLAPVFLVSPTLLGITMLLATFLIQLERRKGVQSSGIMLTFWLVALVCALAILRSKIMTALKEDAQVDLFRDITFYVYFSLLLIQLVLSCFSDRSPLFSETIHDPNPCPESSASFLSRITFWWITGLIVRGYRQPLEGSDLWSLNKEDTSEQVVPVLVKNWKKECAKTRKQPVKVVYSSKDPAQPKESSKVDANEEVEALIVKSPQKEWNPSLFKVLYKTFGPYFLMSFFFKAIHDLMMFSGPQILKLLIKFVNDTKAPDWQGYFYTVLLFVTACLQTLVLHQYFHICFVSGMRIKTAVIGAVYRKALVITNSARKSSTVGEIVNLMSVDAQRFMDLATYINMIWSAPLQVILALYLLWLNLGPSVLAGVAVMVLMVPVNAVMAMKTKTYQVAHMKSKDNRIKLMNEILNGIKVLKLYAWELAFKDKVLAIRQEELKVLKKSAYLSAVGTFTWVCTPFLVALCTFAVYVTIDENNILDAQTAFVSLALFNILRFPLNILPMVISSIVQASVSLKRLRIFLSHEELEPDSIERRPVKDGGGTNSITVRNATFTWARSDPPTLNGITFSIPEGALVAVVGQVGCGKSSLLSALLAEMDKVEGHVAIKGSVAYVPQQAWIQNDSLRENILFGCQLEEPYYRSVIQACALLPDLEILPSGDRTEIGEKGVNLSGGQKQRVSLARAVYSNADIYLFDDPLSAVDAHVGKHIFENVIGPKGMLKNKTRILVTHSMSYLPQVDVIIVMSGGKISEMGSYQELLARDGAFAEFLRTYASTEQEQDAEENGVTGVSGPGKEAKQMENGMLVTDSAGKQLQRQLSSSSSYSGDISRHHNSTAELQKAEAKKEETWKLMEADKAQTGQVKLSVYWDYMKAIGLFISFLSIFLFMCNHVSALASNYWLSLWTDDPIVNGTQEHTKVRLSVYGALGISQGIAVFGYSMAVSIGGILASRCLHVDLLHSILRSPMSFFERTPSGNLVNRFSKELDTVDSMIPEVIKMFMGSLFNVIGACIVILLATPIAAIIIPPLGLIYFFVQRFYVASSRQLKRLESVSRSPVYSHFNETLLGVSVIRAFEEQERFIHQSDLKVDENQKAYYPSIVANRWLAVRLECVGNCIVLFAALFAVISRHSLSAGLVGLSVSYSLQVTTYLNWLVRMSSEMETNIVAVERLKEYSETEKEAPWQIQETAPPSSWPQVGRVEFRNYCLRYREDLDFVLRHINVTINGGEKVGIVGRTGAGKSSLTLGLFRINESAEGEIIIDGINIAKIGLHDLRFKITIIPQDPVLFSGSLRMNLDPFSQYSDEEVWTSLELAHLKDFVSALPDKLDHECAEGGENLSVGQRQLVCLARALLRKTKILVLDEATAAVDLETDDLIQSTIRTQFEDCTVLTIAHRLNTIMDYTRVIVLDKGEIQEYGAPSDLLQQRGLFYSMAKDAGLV
Description: FIG. 5, Panel A illustrates the ATP-dependent transport of [^3H]etoposide glucuronide into membrane vesicles from MRP-overexpressing cells. Panel B provides a comparison of MRP-mediated ATP-dependent transport of [^3H]etoposide glucuronide and [^3H]etoposide into membrane vesicles from MRP-overexpressing cells.

MRP [2] = target: T1, MRP; assay: ATP-dependent transport into membrane vesicles of MRP-overexpressing HL60/ADR cells; assay type: biochemical; design: HL60/ADR cells (human leukemia cells grown in adriamycin and overexpressing MRP); endogenous in cells; host or cells: HL60/ADR (Adriamycin-selected human HL60 leukemia cells), plasma membrane vesicles
Description: (§2) HL60/ADR cells (human leukemia cells grown in adriamycin and overexpressing MRP), revertant HL60 cells, and parental HL60 cells, respectively, were harvested by centrifugation after cultivation in cell culture and plasma membrane vesicles were prepared according to standard methods. Briefly, the cells were lysed by incubation in hypotonic buffer (0.5 mM sodium phosphate (pH 7.0), 0.1 mM EDTA supplemented with protease inhibitors) for 1.5 hours, followed by homogenization in a homogenizer. After centrifugation of the homogenate at 12,000×g(4° C., 10 minutes), the supernatant was centrifuged at 100,000×g at 4° C. for 45 minutes. […] After centrifugation at 280,000×g at 4° C. for 2 hours, the interphase was collected, washed by centrifugation in incubation buffer (100,000×g) and passed 20 times through a 27-gauge needle.
Membrane vesicles (50 μg of protein) were incubated in the presence of 4 mM ATP, 10 mM MgCl2, 10 mM of creatine phosphate, and the labeled substrate in an incubation buffer containing 250 mM sucrose and 10 mM Tris-HCl, pH 7.4. The final volume was 110 μl. Aliquots of 20 μl were taken at predetermined times and diluted in 1 ml of ice-cold incubation buffer. The dilute samples were filtered immediately through a nitrocellulose membrane (0.2 μm pore size), presoaked in incubation buffer using a rapid filtration device and rinsed twice with 5 ml incubation buffer. The filters were immersed in liquid and measured in a liquid scintillation counter. ATP was replaced by an equal concentration of 5′-AMP in a control experiment. All rates of the ATP-dependent transport were obtained by subtracting the values obtained in the presence of 5′-AMP from those measured in the presence of ATP.

[3] = system: membrane vesicles of parental and revertant HL60 cells; assay: ATP-dependent transport into membrane vesicles of parental and revertant HL60 cells (low MRP expression); assay type: biochemical, human; conditions: substrate 5 μM
Description: as §2
Membrane vesicles (50 μg of protein) were incubated in the presence of 4 mM ATP, 10 mM MgCl2, 10 mM of creatine phosphate, and the labeled substrate in an incubation buffer containing 250 mM sucrose and 10 mM Tris-HCl, pH 7.4. The final volume was 110 μl. […] The filters were immersed in liquid and measured in a liquid scintillation counter. […] All rates of the ATP-dependent transport were obtained by subtracting the values obtained in the presence of 5′-AMP from those measured in the presence of ATP.

## COc1cccc2c1C(=O)c1c(O)c3c(c(O)c1C2=O)C[C@@](O)(C(=O)CO)C[C@@H]3O[C@H]1C[C@H](N)[C@H](O)[C@H](C)O1 [Adriamycin, Doxorubicin]
HL60/S cells
  IC50: 0.011 µg/mL (≈ 0.0202 µM)
HL60/ADR cells; HL60/ADR
  IC50: 2.2 µg/mL (≈ 4.05 µM)

## COc1cc([C@@H]2c3cc4c(cc3[C@@H](O[C@@H]3O[C@@H]5CO[C@@H](C)O[C@H]5[C@H](O)[C@H]3O)[C@H]3COC(=O)[C@H]23)OCO4)cc(OC)c1O [Etoposide]
HL60/S cells
  IC50: 0.39 µg/mL (≈ 0.663 µM)
HL60/ADR cells; HL60/Adr cells (express P190), read-out: IC50
  IC50: > 10 µg/mL
MRP [1]
  substrate for MRP: not a substrate for MRP

## CCCCC/C=C\C\C=C/C=C/C=C/[C@@H](SC[C@H](N)C(=O)NCC(=O)O)[C@@H](O)CCCC(=O)O [LTD4]
MRP [2]
  substrate for the MRP protein: substrates

## CCCCC/C=C\C\C=C/C=C/C=C/[C@@H](SC[C@H](N)C(=O)O)[C@@H](O)CCCC(=O)O [LTE4]
MRP [2]
  substrate for the MRP protein: substrates

## N[C@@H](CCC(=O)N[C@@H](CSc1ccc([N+](=O)[O-])cc1[N+](=O)[O-])C(=O)NCC(=O)O)C(=O)O [S-(2,4-dinitrophenyl-[^3H]glutathione, S-(2,4-dinitrophenyl)-[^3H]glutathione]
[3]
  transport rate compared with HL60/ADR membranes: 10 times less
MRP [2]; substrate 5 μM, HL60/ADR membranes
  rate of ATP-dependent transport: 50+4 pmol×mg protein^−1×min^−1

## COc1cc([C@@H]2c3cc4c(cc3[C@@H](O[C@@H]3O[C@@H]5CO[C@@H](C)O[C@H]5[C@H](O)[C@H]3O)[C@H]3COC(=O)[C@H]23)OCO4)cc(OC)c1O[C@@H]1O[C@H](C(=O)O)[C@@H](O)[C@H](O)[C@H]1O [etoposide glucuronide]
MRP [1]
  substrate for MRP: mediated by MRP
